Key:
[1] = DPPH test, activity as free-radical scavenger; assay type: biochemical; conditions: DPPH 100 μmol/l in methanol, absorption at 515 nm
Procedure: The activity of the illustrative compounds as in examples 7 to 13 as free-radical scavengers was compared with the conventional free-radical scavenger and two examples from WO 95 01,157. For this, the DPPH (1,1-diphenyl-2-picryl-hydrazyl) test was used to eliminate free radicals.
DPPH was dissolved in methanol to a concentration of 100 μmol/l. A series of dilutions of the illustrative compounds, vitamin C, α-tocopherol and dibutylhydroxytoluene were prepared in methanol. Methanol was used as the control. 2500 μl of the DPPH solution were mixed with 500 μl of each test solution, and the decrease in the absorption at 515 nm was read off until the decrease was less than 2% per hour. The activity of the test substances as free-radical scavengers was calculated according to the following equation:
Activity as free-radical scavenger (%)=100−(absorption of the test compounds)/(absorption of the control)×100.
The activity of the free-radical scavengers (%) in a series of dilutions of test compounds was used to calculate, for each test compound, the effective relative concentration EC50 (based on the initially present concentration of DPPH, EC=c (test compound)/c(DPPH)) of a test compound at which 50% of the DPPH free radical had been eliminated.

[2] = Rancimat accelerated autoxidation of lipids by air, soybean oil; conditions: antioxidative index = IP(with test solution)/IP(control sample), soybean oil purified over alumina, 0.05% test substance
Procedure: (§1) The activity of the illustrative compounds according to Examples 7 to 13 as antioxidants was compared with the conventional antioxidants and two examples from WO 95 01,157. The test system used was the accelerated autoxidation of lipids by air with or without antioxidant using the Rancimat apparatus (Rancimat is a registered trademark of Metrohm AG, Herisau, Switzerland).
(§2) The illustrative compounds, vitamin C, α-tocopherol and dibutyihydroxytoluene were dissolved in methanol or acetone and 100 μl of each test solution were added to a prepared oil sample of 3 g. In a control sample only solvent was added. A constant stream of dry air (20 l/h) was bubbled through the heated oil sample containing the test solution, and the volatile oxidation products (predominantly short-chain fatty acids such as formic acid or acetic acid) were collected in a receiver containing water. The conductivity of this aqueous solution was measured continuously and documented. The oxidation of (unsaturated) fats proceeds here only very slowly for a period of time and then suddenly increases greatly. The time to the increase is referred to as the induction period (IP).
(§3) The antioxidative index (AOI) was obtained according to the following equation:
(§4) AOI=IP(with test solution)/IP(control sample).

[3] = Rancimat accelerated autoxidation of lipids by air, squalene; conditions: antioxidative index = IP(with test solution)/IP(control sample), squalene purified over alumina, stabilized with 1 ppm α-tocopherol, 0.005% test substance
Procedure: as §1, §2, §3, §4
The results for the experiment at 80° C. in squalene that was purified over alumina grade N and stabilized with 1 ppm of α-tocopherol are shown in table 4: […]

Row | SMILES | EC50 (effective relative concentration, c(test compound)/c(DPPH), at which 50% of the DPPH free radical had been eliminated) [1] [mol/mol] | melting point | AOI in soybean oil at 100° C. with 0.05% of test substance [2] | AOI in squalene at 80° C. with 0.005% of test substance [3]
1 | Cc1cc(C(C)(C)C)c(O)c(C(C)(C)C)c1 [Dibutylhydroxytoluene, reference compound] | 0.240 |  | 4.8 | 38
2 | ON=Cc1cc(O)c(O)c(O)c1 [Example 9, 3,4,5-Trihydroxybenzaldehyde oxime] | 0.090 | 177 °C (dec.) | 20.9 | 150
3 | CCON=Cc1ccc(O)c(O)c1 [Example 10, 3,4-Dihydroxybenzaldehyde O-ethyloxime] | 0.156 | < 23 °C | 17.3 | 85
4 | Cc1ccc(CON=Cc2ccc(O)c(O)c2)cc1 [Example 11, 3,4-Dihydroxybenzaldehyde O-(4-methylbenzyl)oxime] | 0.131 | 85 to 86 °C | 14.1 | 50
5 | CCON=C(C)c1ccc(O)c(O)c1 [Example 12, 3,4-Dihydroxyacetophenone O-ethyloxime] | 0.298 |  | 15.2 | 65
6 | CCON=Cc1cc(O)c(O)c(O)c1 [Example 13, 3,4,5-Trihydroxybenzaldehyde O-ethyloxime] | 0.132 | 80 °C | 17.2 | 126
7 | CC(=NO)c1ccccc1O [o-Hydroxyacetophenone oxime, reference compound] | >3.0 |  | 0.9 | 1.6

Now from value to molecule, other results behind:

Row | EC50 (effective relative concentration, c(test compound)/c(DPPH), at which 50% of the DPPH free radical had been eliminated) [1] [mol/mol] | melting point | SMILES | AOI in soybean oil at 100° C. with 0.05% of test substance [2] | AOI in squalene at 80° C. with 0.005% of test substance [3]
8 | 0.053 | 143 °C (dec.) | ON=Cc1ccc(O)c(O)c1 [Example 7, 3,4-Dihydroxybenzaldehyde oxime] | 15.8 | 70
9 | 0.073 |  | CC(=NO)c1ccc(O)c(O)c1 [Example 8, 3,4-Dihydroxyacetophenone oxime] | 16.6 | 95
10 | 0.270 |  | O=C1O[C@H]([C@@H](O)CO)C(O)=C1O [Vitamin C, reference compound] | 1.2 | 0.7
11 | 0.250 |  | Cc1c(C)c2c(c(C)c1O)CC[C@@](C)(CCC[C@H](C)CCC[C@H](C)CCCC(C)C)O2 [α-Tocopherol, reference compound] | 5.1 | 39

Reference: US20030049287A1, “Catechol oximes and their use in cosmetic and dermatological preparations” (priority 1999, published 2003)
